# Experimental data taken from patent US8247380B2, “Alpha 1-acid glycoprotein, alpha 2-HS glycoprotein, alpha 1-antitrypsin, and fragments thereof induce apoptosis in cancer cell lines” (Ambryx Biotechnology, D.C., priority 1997, dated 2012).
# Entries after “also recorded” stand apart in the source; their conditions may differ.
# B1: fetuin: bovine fetuin from fetal bovine serum by the modified Spiro method with zinc acetate (Section 4A) (protein, UniProt P12763 19-359, looked up)
# Alpha-2-HS-glycoprotein: IPLDPVAGYKEPACDDPDTEQAALAAVDYINKHLPRGYKHTLNQIDSVKVWPRRPTGEVYDIEIDTLETTCHVLDPTPLANCSVRQQTQHAVEGDCDIHVLKQDGQFSVLFTKCDSSPDSAEDVRKLCPDCPLLAPLNDSRVVHAVEVALATFNAESNGSYLQLVEISRAQFVPLPVSVSVEFAVAATDCIAKEVVDPTKCNLLAEKQYGFCKGSVIQKALGGEDVRVTCTLFQTQPVIPQPQPDGAEAEAPSAVPDAAGPTPSAAGPPVASVVVGPSVVAVPLPLHRAHYDLRHTFSGVASVESSSGEAFHVGKTPIVGQPSIPGGPVRLCPGRIRYFKI
# modifications: zinc
# Columns and labels:
# HL-60 (leukemia) cells = assay: Cell death (apoptosis) assay, HL-60 cells; format: cell-based, human; conditions: for apoptotic activity, panel of cell lines (in words): peptide fragment: 6 hours
# Method: Fetuin purified from fetal bovine serum by the procedure described above was dissolved in phosphate buffer saline (PBS). The free Zinc Acetate and Barium Acetate were removed by repetitive concentration. Fetuin was tested in LNCaP and HL-60 cells. […] Fetuin (in 10 μl PBS) at concentration of 100 ng/ml was added 3-4 hours after the cells were seeded.
# [1] = system: p3HR-1 (human Burkitt lymphoma); assay: Apoptosis assay, p3HR-1 cells; format: cell-based; conditions: peptide fragment: 6 hours
# [2] = system: HT-29 (human colon adenocarcinoma); assay: Apoptosis assay, HT-29 cells; conditions: for apoptotic activity, panel of cell lines (in words): peptide fragment: 6 hours
# Method: Prostate cancer cell line LNCAP was routinely used for the isolation of Apogen P-1 and Apogen P-2, whereas leukemia cell line HL-60 was used for the isolation of Apogen L. The methods of assays were as follows: LNCAP or HL-60 (1,000 cells) was seeded in 10 microliters RPMI containing 15% or 20% Fetal bovine serum, penicillin and streptomycin at 37 degrees, 5% CO2 in Microtray plates (25 μl wells, Robbins Scientific Corp.). The tested sample (10 μl) was added 3-4 hours after cells were seeded. After incubation of the tested sample with cells for 15 hours, two microliters of Hoechst dye (0.03 ng/ml in PBS) was added. Two hours later, cells that were stained with Hoechst dye were examined under fluorescence microscope. […] The percentage of apoptotic cells was calculated by the following equation:
# The DNA condensation, DNA fragmentation and peripheral crescents of the nuclei are characteristics of a cell under apoptosis.
# [3] = system: LNCaP (prostate cancer) cells; assay: Cell death (apoptosis) assay, LNCaP cells; format: cell-based, human; conditions: for induced apoptosis: 4 hours; for apoptotic activity relative to fetuin prepared by other methods, later conservative estimate: conservatively estimated
# Method: […] The free Zinc Acetate and Barium Acetate were removed by repetitive concentration. Fetuin was tested in LNCaP and HL-60 cells. […] Fetuin (in 10 μl PBS) at concentration of 100 ng/ml was added 3-4 hours after the cells were seeded.
# [4] = system: Calu-1 (human lung carcinoma); assay: Apoptosis assay, Calu-1 cells; format: cell-based; conditions: for apoptotic activity, panel of cell lines (in words): peptide fragment: 6 hours
# [5] = system: CCD 39 Lu (normal lung fibroblast); assay: Apoptosis assay, CCD 39 Lu cells; format: cell-based, human
# [6] = system: CCD-18 Co (human normal colon fibroblast); assay: Apoptosis assay, CCD-18 Co cells; format: cell-based; conditions: for apoptotic activity, panel of cell lines (in words): peptide fragment: 6 hours
# Description: Zinc charged alpha 1-acid glycoprotein has no effect on CCD 18Co cells (human normal colon fibroblast).
# [7] = system: CCD25 Lu (human normal lung); assay: Apoptosis assay, CCD25 Lu cells; format: cell-based; conditions: peptide fragment: 6 hours
# Hep G2 (Human hepatoma) = assay: Apoptosis assay, Hep G2 cells
# cancer cell lines = assay: Apoptosis assay, cancer cells (cell line not given); format: cell-based; conditions: cancer cells
# [8] = system: Hs578 Bst (human normal breast); assay: Apoptosis assay, Hs578 Bst cells; format: cell-based; conditions: peptide fragment: 6 hours
# [9] = system: tumor cell line P388D1 (leukemia); assay: Effect of fetal fetuin on leukemia-bearing mice; format: in vivo, DBA/2 female mice
# Method: Forty DBA/2 female mice (17-20 grams; Simonsen Laboratories, Inc., Gilroy, Calif.) kept on a standard diet and water ad libitum were inoculated with tumor cell line P388D1 (ATCC cell line number CCL46). The mice were randomly segregated into groups of ten (10). Zinc-charged fetal fetuin (10 mg/ml) were intraperitoneally injected into group I at 0.002 ml/mouse, group II at 0.02 ml/mouse and group III at 0.2 ml/mouse. Group IV was the control group, which was injected with 0.5 ml of saline solution. The injections were continued for 10 days. Mortalities were recorded for 60 days. The results were expressed as the percentage increase in life span (ILS): […]
# PC-3 (prostate cancer) = assay: Apoptosis assay, PC-3 cells; format: cell-based; conditions: 50 μg/ml
# [10] = system: MCF-7 (breast cancer) cells; assay: Apoptosis assay, MCF-7 cells; format: cell-based
# Colo 205 (colon cancer) = assay: Apoptosis assay, Colo 205 cells; format: cell-based; conditions: 50 μg/ml
# Method: The tested sample (10 μl) was added 3-4 hours after cells were seeded. After incubation of the tested sample with cells for 15 hours, two microliters of Hoechst dye (0.03 ng/ml in PBS) was added. Two hours later, cells that were stained with Hoechst dye were examined under fluorescence microscope. […] The percentage of apoptotic cells was calculated by the following equation:
# [11] = 100 ng/ml in PBS, 15 hours, Hoechst dye
molecule,measurement,setting,value
"zinc charged alpha 1-antitrypsin: alpha 1-antitrypsin (Sigma), EDTA treated and charged with zinc acetate","apoptotic activity, panel of cell lines (in words)",HL-60 (leukemia) cells,induced apoptosis
same,"apoptotic activity, panel of cell lines (in words)",[1],induced apoptosis
same,apoptotic activity / morphology (in words),"[2]; 5 μM, 4 hours",caused cell shrinkage and membrane blebbing
same,"apoptotic activity, panel of cell lines (in words)",[2],induced apoptosis
same,"apoptotic activity, panel of cell lines (in words)",[3],induced apoptosis
same,"apoptotic activity, panel of cell lines (in words)",[4],induced apoptosis
same,"apoptotic activity, panel of cell lines (in words)",[5],no effect was seen
same,"apoptotic activity, panel of cell lines (in words)",[6],no effect was seen
same,"apoptotic activity, panel of cell lines (in words)",[7],no effect was seen
"zinc charged alpha 1-acid glycoprotein: alpha 1-acid glycoprotein from adult human serum, EDTA treated and charged with zinc acetate","apoptotic activity, panel of cell lines (in words)",HL-60 (leukemia) cells,apoptotic activity was present
same,"apoptotic activity, panel of cell lines (in words)",[1],apoptotic activity was present
same,apoptosis,"[2]; 5 μM, 4 hours",100%
same,apoptotic activity / morphology (in words),"[2]; 5 μM, 4 hours",resulted in the condensation and fragmentation of DNA
same,"apoptotic activity, panel of cell lines (in words)",[2],apoptotic activity was present
same,"apoptotic activity, panel of cell lines (in words)",[3],apoptotic activity was present
same,"apoptotic activity, panel of cell lines (in words)",[4],apoptotic activity was present
same,"apoptotic activity, panel of cell lines (in words)",Hep G2 (Human hepatoma),apoptotic activity was present
same,cell death,"Hep G2 (Human hepatoma); 5 μM, 4 hours",90%
same,concentration at which apoptotic activity was induced (apoptotic threshold),cancer cell lines,0.75 µM
same,cell death (in words),"[6]; 5 μM, six hours",did not cause cell death
same,"apoptotic activity, panel of cell lines (in words)",[6],no activity was present
same,"apoptotic activity, panel of cell lines (in words)",[8],no activity was present; also recorded: no effect was seen
same,"apoptotic activity, panel of cell lines (in words)",[7],no activity was present; also recorded: no effect was seen
fetal fetuin: Zinc-charged fetal fetuin (10 mg/ml) injected intraperitoneally into mice,mice that survived more than 58 days,"[9]; 100 mg/Kg intraperitoneally for 10 days, untreated 100% dead after 24 days",80%
same,increased life span (ILS),[9]; leukemia-bearing mice treated with fetal fetuin,141%
B1,"apoptosis, nuclear morphology (in words)",HL-60 (leukemia) cells; [11],showed the characteristics of apoptosis
same,induction of apoptosis (in words),HL-60 (leukemia) cells; 25 μg/ml,highly induced apoptosis
same,induction of apoptosis (in words),HL-60 (leukemia) cells; 50 μg/ml,strongly induced apoptosis
same,induction of apoptosis (in words),PC-3 (prostate cancer),strongly induced apoptosis
same,induction of apoptosis (in words),[10]; 25 μg/ml,highly induced apoptosis
same,induction of apoptosis (in words),[10]; 50 μg/ml,strongly induced apoptosis
same,"apoptosis, nuclear morphology (in words)",[3]; [11],showed the characteristics of apoptosis
same,induction of apoptosis (in words),[3]; 25 μg/ml,highly induced apoptosis
same,induced apoptosis,[3]; 25 μg/ml,up to 90%
same,induction of apoptosis (in words),[3]; 50 μg/ml,strongly induced apoptosis
same,induced apoptosis,[3]; approximately 50 μM,up to 90%
same,"apoptotic activity relative to fetuin prepared by other methods, later conservative estimate",[3]; listed as Fetuin as prepared in Section 4A,approximately 100 times
same,"apoptotic activity relative to fetuin prepared by other methods, later conservative estimate",[3]; listed as fetuin as prepared in Section 4A,more than one hundred times greater
same,"apoptotic activity relative to fetuin prepared by other methods, initial estimate",[3]; initially estimated,more than fifty thousand folds higher; also recorded: more than fifty thousand times higher
same,induction of apoptosis (in words),[4]; 50 μg/ml,strongly induced apoptosis
same,induction of apoptosis (in words),"[5]; 25 μg/ml, 15 hours",inactive in inducing apoptosis
same,induction of apoptosis (in words),[5]; 50 μg/ml,is not affected
same,induction of apoptosis (in words),Colo 205 (colon cancer),strongly induced apoptosis
